Our source for the IC50 values is PubChem BioAssay AID2305 (GlaxoSmithKline (GSK), 2010).

A word on the IC50: it is the concentration that gives 50% inhibition.

For this test, the system named is P. falciparum 3D7 growth, pLDH absorbance. Description: P. falciparum 3D7 growth inhibition, dose response, strain 3D7 (AID 2305).

For `CC[C@H]1CN2CC[C@H]1C[C@H]2[C@H](O)c1cc(-c2ccc(F)cc2C)nc2ccc(OC)cc12`, the IC50 came to 160 nM.

`CN1CCN(CCCN(Cc2cccc(-c3ccc(CNC4CCCC4)cc3)c2)C(=O)/C=C/c2ccccc2)CC1` gave an IC50 of 750 nM.

`CN(C)CCOc1cc(NC(=O)/C=C/c2cccc3ccccc23)ccc1I` returned an IC50 of 1260 nM.

With `COc1cccc(C2(NC[C@@H](O)[C@H](Cc3ccccc3)NC(=O)c3ccccc3)CCCCC2)c1`, the IC50 turned out to be 730 nM.

In the case of `CC(=O)Nc1ccc(CNCCc2ccc(NC(=O)c3cc(Cl)cc(Cl)c3)cc2)cc1`, the IC50 came out at 680 nM.

In turn, `N#Cc1ccc(C=NNc2nc3ccccc3[nH]2)cc1` showed an IC50 of 1000 nM. This IC50 and that of the compound before are within 1.5-fold of each other.

For the compound `Cc1ccc2nc(-c3cc(-c4ccc(CO)cc4)cnc3N)[nH]c2c1`, the half-inhibitory concentration (IC50) turned out to be 860 nM.

Turning to `Nc1nc(N)c2c(Oc3cccnc3)cccc2n1`, the IC50 was found to be 890 nM. The IC50 values of the last two compounds are within 1.5-fold of each other.

Compound `Cc1c(C(=O)Nc2cc(Sc3ccc(F)cc3)cc([N+](=O)[O-])c2)sc2ncn(Cc3ccccc3F)c(=O)c12` came in with a 50% inhibitory concentration (IC50) of 800 nM.

In the case of `O=S(=O)(Nc1ccc(CCN2CCC(N3CCCCC3)CC2)cc1)c1ccc2ccccc2c1`, the IC50 came out at 1010 nM.

Take `COc1ccc(NC(=O)NC2CCN(CCCOc3ccnc4cc(Cl)ccc34)C2)cc1OC` (configuration not stated): the IC50 was 790 nM. The IC50 values of the last two compounds are within 1.5-fold of each other.

For the compound `CCOc1ccc2nc(C)cc(NN=Cc3cccc(C)n3)c2c1`, the 50% inhibitory concentration (IC50) was determined as 750 nM.

The compound `O=C(c1ccc(O)c(-c2cc(Cl)cc(Cl)c2)c1)N(CCO)CCO` gave an IC50 of 910 nM. The IC50 values of the last two compounds are within 1.5-fold of each other.

In the case of `Fc1ccc(Nc2ccnc3cc(I)ccc23)c(Cl)c1`, the IC50 stood at 1080 nM.

On to `Fc1cccc(-c2ccc3c(c2)CC(NCc2c[nH]c4cnccc24)C3)c1` (configuration not stated), for which the IC50 was found to be 480 nM. This IC50 lies about 2.2-fold lower than the previous one.

For the compound `Cc1cccc2[nH]c(-c3cccc(-c4ccc(NC(=O)Nc5ccc(Cl)c(Cl)c5)cc4)c3)nc12`, the IC50 stood at 570 nM.

As for `O=C(CCc1cnc[nH]1)Nc1cccc(-c2ccc(-c3nc4ccc(F)cc4[nH]3)s2)c1`, the half-maximal inhibitory concentration (IC50) was found to be 560 nM.

Take `COc1cc2nc(N3CCC(CNC(=O)c4ccc(-c5ccc(C#N)cc5C)cc4)CC3)nc(N)c2cc1OC`: the IC50 was 180 nM.

The compound `CN1CCN(CC(O)CNC(=O)Nc2ccc(Cl)cc2)CC1` (configuration not stated) displayed an IC50 of 230 nM. This IC50 and that of the compound before are within 1.5-fold of each other.

`COc1ccc2c(NN=Cc3c(OC)ccc4ccccc34)cc(C)nc2c1` showed an IC50 of 780 nM. This IC50 is about 3.4-fold higher than that of the compound before.

The compound `C=CCOc1cccc2c1CCN(CCN1CCC(NC(=O)c3ccc(-c4ccc(Cl)cc4)cc3)CC1)C2` registered an IC50 of 670 nM.

`CCc1c[nH]c2c(N(c3ccccc3)S(C)(=O)=O)cc(C(=O)N[C@@H](Cc3ccccc3)[C@H](O)CNC(C)(C)CCCC(C)C)cc12` displayed an IC50 of 820 nM.

Take `Cc1ccc(Cn2ncc(NC3CCNCC3)c(Cl)c2=O)cc1NC(=O)Nc1ccc(-c2ccccc2)cc1`: the 50% inhibitory concentration (IC50) stood at 660 nM.

With `CC(C)C[C@@H](/C=N/N1CC(=O)NC1=O)NC(=O)[C@H](CC(C)C)NC(=O)c1ccc(OCCN2CCOCC2)cc1`, the IC50 came out at 270 nM.

On to `CS(=O)(=O)Nc1ccc2[nH]cc(C3CCN(CC(O)C4CCN(C(=O)/C=C/c5ccc(Cl)c(Cl)c5)CC4)CC3)c2c1` (configuration not stated), for which the IC50 stood at 1760 nM.

As to `O=C(NC1CCN(Cc2ccccc2)CC1)c1cccc(Nc2nc(-c3ccccc3)cs2)c1`, the IC50 is 1030 nM.

With `Cc1cc(C)cc(OCC(O)CN(Cc2cc(Cl)cc(Cl)c2)C(=O)Nc2ccccc2Cl)c1` (configuration not stated), the IC50 stood at 940 nM.

`Cc1ccccc1Cc1cccc(/N=C(\N)Nc2ccc(Cl)cc2)n1` registered an IC50 of 680 nM.

`CCOc1ccc(-c2nonc2NC(=O)c2ccc(OC)cc2)cc1OCC`: the IC50 is 820 nM.

As for `O=C(/C=C/c1ccc(Cl)c(Cl)c1)NCCCCN1CCCN(C(=O)Nc2ccc(C(F)(F)F)cc2)CC1`, the IC50 came out at 850 nM.

The compound `CCn1cnc2c(N3CCCC3=O)cc(C(=O)N[C@@H](Cc3ccccc3)[C@H](O)CNC3CCCCC3)cc21` displayed an IC50 of 570 nM.

`CCOc1ccc(C(=O)Nc2nonc2-c2ccc(OC)c(OC)c2)cc1` gave an IC50 of 870 nM.

On to `CCc1ccc(CN2CCC(CN(c3ccc(N4CCOCC4)c(F)c3)S(=O)(=O)c3ccc(C(C)(C)CC)cc3)CC2)cc1`, for which the half-maximal inhibitory concentration (IC50) came out at 710 nM.

With `CN(C)CC1c2[nH]c3ccccc3c2CCN1C(=O)Nc1ccc(Cl)c(Cl)c1` (configuration not stated), the half-inhibitory concentration (IC50) was found to be 1210 nM. Against the preceding compound, the IC50 is about 1.7-fold higher.

`N#Cc1cccc(Nc2cc(C(F)(F)F)nc(Nc3ccccc3)n2)c1` gave an IC50 of 1440 nM.

Turning to `CN1CCN(c2ccnc3ccc(NC(=O)Nc4ccc(Cl)c(Cl)c4)cc23)CC1`, the IC50 came to 880 nM.

Consider `CC(C)(C)OC(=O)NCc1ccc(Nc2nnc(-c3cccc(C(=O)NCc4cc(C(F)(F)F)cc(C(F)(F)F)c4)c3)o2)cc1`, for which the half-inhibitory concentration (IC50) stood at 860 nM.

On to `Cc1cccc2[nH]c(-c3ccc(-c4ccc(CN5CCCC(N)C5)cc4)s3)nc12` (configuration not stated), for which the IC50 turned out to be 380 nM.

Compound `CN1CCN(CC(=O)Nc2ccc(-c3csc(-c4nc5ccccc5[nH]4)c3)cc2)CC1` gave an IC50 of 1560 nM. This IC50 is about 4.1-fold higher than that of the compound before.

`Cc1cc(N)c2cc(NC(=O)c3cccc4ccccc34)ccc2n1` registered an IC50 of 840 nM.

`CC(C)(C)c1cc(NC2CC2)nc(-c2ccccn2)n1` yielded a half-inhibitory concentration (IC50) of 720 nM.

The compound `COc1ccc(Nc2ncc3c(-c4cccc(NC(=O)Cc5cccnc5)c4)c[nH]c3n2)cc1OC` had an IC50 of 720 nM.

Turning to `CNC(=O)c1ccccc1Nc1nc(Nc2cccc(CS(C)(=O)=O)c2)ncc1C`, the IC50 was 530 nM.

In turn, `CC(=O)c1ccc(-c2ccccc2)s1` yielded an IC50 of 1080 nM.

As to `COc1ccc(Cl)cc1-c1nc(C(=O)NCCN2CCCCC2)c(C)s1`, the IC50 amounted to 940 nM.

`CN(c1ccnc(Nc2ccc(CS(C)(=O)=O)cc2)n1)C1CCN(Cc2ccccc2)CC1` came in with an IC50 of 1400 nM. The IC50 values of the last two compounds are within 1.5-fold of each other.

With `CN(C)CCN(Cc1ccc(-c2ccc(CNCCc3ccccc3)cc2)nc1)C(=O)CCC1CCCC1`, the concentration for half-maximal inhibition (IC50) is 800 nM. Compared with the last compound, the IC50 is about 1.8-fold lower.

Take `CN(C)CCCOc1ccccc1CN1CC[C@H](NC(=O)c2ccc(Cl)c(Cl)c2)C1`: the IC50 stood at 1110 nM. This IC50 and that of the compound before are within 1.5-fold of each other.

`CCCNC(=O)C1Cc2c([nH]c3ccc(Br)cc23)C2(CCN(CCc3ccccc3)CC2)N1` (configuration not stated) showed an IC50 of 680 nM. Compared with the last compound, the IC50 is about 1.6-fold lower.

Compound `CSc1ccc(CN2CCC(CNC(=O)c3cc(-c4ccccc4F)cs3)C2)cc1` (configuration not stated) registered an IC50 of 1140 nM.

`O=C(/C=C/c1ccc(Cl)c(Cl)c1)NCCCCCN1CCCC(C(=O)Nc2ccc(Cl)c(Cl)c2)C1` (configuration not stated) registered an IC50 of 780 nM.

In turn, `CCOC(=O)c1ccc(-c2cnc(N)c(-c3nc4c(C)cccc4[nH]3)c2)cc1` came in with an IC50 of 280 nM.

Consider `COC(=O)c1cccc(OCCNC2CCN(C[C@H](O)c3ccnc4ccc(OC)cc34)CC2)c1`, for which the half-inhibitory concentration (IC50) came out at 340 nM.

Turning to `O=C(NC1CCC(CCN2CCc3ccc(-c4cnccn4)cc3CC2)CC1)c1cccc(-n2cccn2)c1` (configuration not stated), the IC50 was found to be 900 nM.

In turn, `Cc1cc(OCCCn2ccnc2)ccc1-c1csc(NC(N)=NCc2ccccc2)n1` came in with a half-inhibitory concentration (IC50) of 880 nM.

`O=c1cc(NCCCNC2CCc3c(Cl)cc(Cl)cc32)[nH]c2ccccc12` (configuration not stated) showed a half-maximal inhibitory concentration (IC50) of 930 nM.

As for `Brc1cc(CNCCCNc2nc3ccccc3[nH]2)sc1Br`, the IC50 was found to be 220 nM. Compared with the last compound, the IC50 is about 4.2-fold lower.

As to `Clc1ccc2c(NN=Cc3ccccc3)ccnc2c1`, the IC50 came to 760 nM.

In turn, `c1ccc2c(c1)CN(CC1CCOCC1)CC1(CCN(Cc3c[nH]c4cnccc34)CC1)O2` returned an IC50 of 1550 nM. Against the preceding compound, the IC50 is about 2-fold higher.

The compound `CCCCOc1c(CCNCCCCNCCc2cc(OC)c3ccccc3c2OCCCC)cc(OC)c2ccccc12` had an IC50 of 920 nM. This IC50 lies about 1.7-fold lower than the previous one.

`CC(C)COc1ccc(Cl)cc1Cc1ccc(-c2nc3cc(F)c(F)cc3[nH]2)o1` registered an IC50 of 890 nM. The IC50 values of the last two compounds are within 1.5-fold of each other.

`COC(=O)C(NC(=O)c1ccc(-c2ccc(-c3nc4ccccc4[nH]3)s2)cc1)c1ccc(O)cc1` (configuration not stated): the IC50 was found to be 740 nM.
